Assay results from patent US11179294B2, “Preservative removal from eye drops” (TearClear Corp., priority 2019, dated 2021).
Where a name gives a salt, the structure may show the parent alone.

How the values were obtained:
Assay type in all cases: physicochemical
[1] = Bimatoprost API/BAK uptake drop test through tip loaded with recrystallized stearic acid flakes (Table 8)
Procedure: Bimatoprost ophthalmic solution (20 mL) was formulated by combining 0.0027 g of Citric Acid Anhydrous (Alfa Aesar L #X16D073), 0.0536 g of Sodium phosphate dibasic, heptahydrate (Fisher chemical L #187384) and 0.1619 g of Sodium Chloride (Fisher chemical L #177082) to 20 g stock solution (2NB70.1) of 300 ppm Bimatoprost and 50 ppm BAK.
Bimatoprost formulation (3 mL), was placed into a 5 mL dropper bottle. Recrystallized Stearic acid flakes (0.116 g) was loaded into a proprietary testing tip. The tip was then placed on the dropper bottle containing the solution.
In a simulated usage, two drops are dispensed and diluted according to the proper method for HPLC analysis. Additional pairs of drops are dispensed at intervals no less than 1 hour apart. A standard consisting of the starting material is taken and diluted according to the specific HPLC method. Then each pair of drops was analyzed on the HPLC. The uptake is determined by comparing the area counts of the starting solution to the area counts of the drop. Bimatoprost has a similar linear signal range as BAK in this formulation so all data is collected from a single drop test. […] In successive drops, the BAK is not detected (e.g., is undetectable, is below a detectable threshold based on UV absorption, etc.).

[2] = Lifitegrast API uptake drop test through tip loaded with 50/50 polypropylene/stearic acid blend (Table 9); conditions: 5.0% Lifitegrast formulation, 0.328 g 50/50 blend in tip
Procedure: (§1) A Lifitegrast ophthalmic solution (e.g., Xiidra mimic in the table) was prepared, consisting of 5.0% Lifitegrast (BOC Sciences Lot B19V08071), 2.0% Sodium Phosphate Dibasic Anhydrous (J. T. Baker Lot 0000236665), 0.5% Sodium thiosulfate pentahydrate (Fisher Chemical Lot 181801), and 0.005% BAK Aldrich 12063 (Lot #BCBW4741).
(§2) Three mL of the Lifitegrast formulation was placed into a 5 mL dropper bottle. 50/50 polypropylene/steric acid blend (0.328 g) was loaded into a proprietary testing tip. The tip was then placed on the dropper bottle containing the solution.
(§3) In a simulated usage, two drops are dispensed and diluted according to the proper method for HPLC analysis. Due to the relatively high concentration of Lifitegrast, 2 separate drops tests were done for the active pharmaceutical ingredient and BAK. A standard consisting of the starting material is taken and diluted according to the specific HPLC method. Then each pair of drops was analyzed on the HPLC. The uptake is determined by comparing the area counts of the HPLC peaks of the starting solution to the area counts of the drop.

[3] = Timolol Maleate/Brimonidine tartrate API uptake drop test through tip loaded with 20/80 polypropylene/stearic acid powder (Table 6); conditions: solution 2NB62, 0.32 g stearic acid/polypropylene powder in tip, HPLC area counts of drops vs starting solution
Procedure: (§4) A Timolol Maleate/Brimonidine tartrate ophthalmic solution was prepared (e.g., 2NB62, a Combigan analogue, etc) according to Table 5. The following were added to a 500 mL bottle: 2.151 g of Sodium Phosphate dibasic heptahydrate (Fisher Chemical L #187384), 0.432 g of Sodium Phosphate monobasic monohydrate (Fisher Chemical L #188731), 0.505 g of 0.991% BAK solution (Lot 2NB61), 0.202 g of Brimonidine Tartrate (BOC Sciences L #BV19V06171), and 0.681 g of Timolol Maleate (BOC Sciences L #BS19V04062). Ultra-pure water (100.017 g) of was added and stirred on a rotary shaker overnight to dissolve. Three mL of the solution, 2NB62, was placed into a 5 mL dropper bottle. Stearic acid/polypropylene powder (0.32 g) was loaded into a proprietary testing tip. The tip was then placed on the dropper bottle containing the solution.
In a simulated usage, two drops are dispensed and diluted according to the proper method for HPLC analysis. Additional pairs of drops are dispensed at intervals no less than 1 hour (hr) apart. A standard consisting of the starting material is taken and diluted according to the specific HPLC method. Then each individual drop is analyzed on the HPLC. The uptake is determined by comparing the area counts from the HPLC peaks of the starting solution to the area counts of the drop.

[4] = Lifitegrast BAK uptake drop test through tip loaded with 50/50 polypropylene/stearic acid blend (Table 10)
Procedure: as §1, §2, §3

[5] = Timolol Maleate/Brimonidine tartrate BAK uptake drop test through tip loaded with 20/80 polypropylene/stearic acid powder (Table 7); conditions: solution 2NB62 through 20/80 blend tip
Procedure: as §4
In a simulated usage, two drops are dispensed and diluted according to the proper method for HPLC analysis. […] Then each individual drop is analyzed on the HPLC. The uptake is determined by comparing the area counts from the HPLC peaks of the starting solution to the area counts of the drop.
A separate, parallel drop test was performed using the same materials to test BAK uptake. […] In successive drops, the BAK is not detected (e.g., is undetectable, is below a detectable threshold based on UV absorption, etc.).

[6] = 300 ppm Bimatoprost / 50 ppm BAK formulation, 0.116 g recrystallized stearic acid flakes in tip

## CCNC(=O)CCC/C=C\C[C@@H]1[C@@H](/C=C/[C@@H](O)CCc2ccccc2)[C@H](O)C[C@@H]1O [Bimatoprost]
[1]; [6]
  Bimatoprost concentration after passing through the flakes: not significantly reduced

## CS(=O)(=O)c1cccc(C[C@H](NC(=O)c2c(Cl)cc3c(c2Cl)CCN(C(=O)c2ccc4ccoc4c2)C3)C(=O)O)c1 [Lifitegrast]
[2]
  Lifitegrast passage through the tip: not hindered

## CC(C)(C)NC[C@H](O)COc1nsnc1N1CCOCC1 [Timolol, Timolol Maleate]
[3]
  API concentration after passing through the powder in the tip: neither the concentration of Timolol nor Brimonidine are significantly affected

## Benzalkonium chloride [BAK]
[1]; [6]
  BAK after passing through the flakes: eliminated
[1]; successive drops, recrystallized stearic acid flakes tip
  BAK in successive drops: not detected
[4]; drops after the first, Lifitegrast formulation through 50/50 blend tip
  BAK in later drops: not detectable
[4]; first drop, Lifitegrast formulation with 0.005% BAK through 50/50 blend tip
  BAK in first drop: only a small amount
[5]; drops after the first, UV detection
  BAK in successive drops: not detected
[5]; first drop
  BAK in first drop, share of starting BAK: about 5%

## Brimonidine Tartrate
[3]
  API concentration after passing through the powder in the tip: neither the concentration of Timolol nor Brimonidine are significantly affected
